Measured values reported in paper doi:10.1101/2023.03.24.534094v2 (biorxiv, 2023).
Read-outs that look alike come from different tables or passages of the source. Each block holds one compound with its values, some of them ahead of it.

What was measured:
Assay in all cases: biochemical
MAPKAPK2 = MAPKAPK2 (Homo sapiens, UniProt P49137)
Erk7 = target: T1, Erk7 (Homo sapiens, UniProt Q8TD08)
T1 sequence (Q8TD08 1-544): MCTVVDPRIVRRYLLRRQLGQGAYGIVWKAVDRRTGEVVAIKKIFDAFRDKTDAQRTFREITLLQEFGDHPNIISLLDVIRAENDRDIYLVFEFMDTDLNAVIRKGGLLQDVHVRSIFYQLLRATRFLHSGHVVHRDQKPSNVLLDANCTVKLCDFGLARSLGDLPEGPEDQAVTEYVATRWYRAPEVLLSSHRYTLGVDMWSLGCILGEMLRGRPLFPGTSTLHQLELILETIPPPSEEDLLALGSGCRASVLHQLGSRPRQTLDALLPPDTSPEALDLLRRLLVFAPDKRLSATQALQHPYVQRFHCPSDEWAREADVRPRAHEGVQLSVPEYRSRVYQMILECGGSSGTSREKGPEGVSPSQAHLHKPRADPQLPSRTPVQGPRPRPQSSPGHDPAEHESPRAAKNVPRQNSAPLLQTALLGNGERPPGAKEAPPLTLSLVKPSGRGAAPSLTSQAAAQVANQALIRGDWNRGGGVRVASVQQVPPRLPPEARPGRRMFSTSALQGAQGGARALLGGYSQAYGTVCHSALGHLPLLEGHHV

BMX = target: T2, BMX (Homo sapiens, UniProt P51813)
T2 sequence (P51813 1-675): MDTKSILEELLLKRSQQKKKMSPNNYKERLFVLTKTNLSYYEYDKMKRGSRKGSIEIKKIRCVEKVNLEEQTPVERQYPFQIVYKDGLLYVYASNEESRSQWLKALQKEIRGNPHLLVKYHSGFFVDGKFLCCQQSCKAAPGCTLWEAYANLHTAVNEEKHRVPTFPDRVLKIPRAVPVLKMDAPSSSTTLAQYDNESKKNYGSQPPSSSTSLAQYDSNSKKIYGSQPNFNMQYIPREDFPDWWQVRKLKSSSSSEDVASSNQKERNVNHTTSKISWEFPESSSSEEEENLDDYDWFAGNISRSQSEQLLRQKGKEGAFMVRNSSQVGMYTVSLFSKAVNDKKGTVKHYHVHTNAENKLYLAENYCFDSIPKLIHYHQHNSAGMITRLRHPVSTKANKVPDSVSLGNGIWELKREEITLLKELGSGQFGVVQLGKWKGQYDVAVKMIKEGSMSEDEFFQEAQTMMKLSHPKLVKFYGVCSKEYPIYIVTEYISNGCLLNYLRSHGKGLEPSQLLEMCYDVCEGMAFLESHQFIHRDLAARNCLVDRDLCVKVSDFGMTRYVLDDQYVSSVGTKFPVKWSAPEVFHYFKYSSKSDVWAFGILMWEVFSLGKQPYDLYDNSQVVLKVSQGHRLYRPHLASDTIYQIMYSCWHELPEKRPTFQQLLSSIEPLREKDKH

BMPR2 = target: T3, BMPR2 (Homo sapiens, UniProt Q13873)
T3 sequence (Q13873 1-1038): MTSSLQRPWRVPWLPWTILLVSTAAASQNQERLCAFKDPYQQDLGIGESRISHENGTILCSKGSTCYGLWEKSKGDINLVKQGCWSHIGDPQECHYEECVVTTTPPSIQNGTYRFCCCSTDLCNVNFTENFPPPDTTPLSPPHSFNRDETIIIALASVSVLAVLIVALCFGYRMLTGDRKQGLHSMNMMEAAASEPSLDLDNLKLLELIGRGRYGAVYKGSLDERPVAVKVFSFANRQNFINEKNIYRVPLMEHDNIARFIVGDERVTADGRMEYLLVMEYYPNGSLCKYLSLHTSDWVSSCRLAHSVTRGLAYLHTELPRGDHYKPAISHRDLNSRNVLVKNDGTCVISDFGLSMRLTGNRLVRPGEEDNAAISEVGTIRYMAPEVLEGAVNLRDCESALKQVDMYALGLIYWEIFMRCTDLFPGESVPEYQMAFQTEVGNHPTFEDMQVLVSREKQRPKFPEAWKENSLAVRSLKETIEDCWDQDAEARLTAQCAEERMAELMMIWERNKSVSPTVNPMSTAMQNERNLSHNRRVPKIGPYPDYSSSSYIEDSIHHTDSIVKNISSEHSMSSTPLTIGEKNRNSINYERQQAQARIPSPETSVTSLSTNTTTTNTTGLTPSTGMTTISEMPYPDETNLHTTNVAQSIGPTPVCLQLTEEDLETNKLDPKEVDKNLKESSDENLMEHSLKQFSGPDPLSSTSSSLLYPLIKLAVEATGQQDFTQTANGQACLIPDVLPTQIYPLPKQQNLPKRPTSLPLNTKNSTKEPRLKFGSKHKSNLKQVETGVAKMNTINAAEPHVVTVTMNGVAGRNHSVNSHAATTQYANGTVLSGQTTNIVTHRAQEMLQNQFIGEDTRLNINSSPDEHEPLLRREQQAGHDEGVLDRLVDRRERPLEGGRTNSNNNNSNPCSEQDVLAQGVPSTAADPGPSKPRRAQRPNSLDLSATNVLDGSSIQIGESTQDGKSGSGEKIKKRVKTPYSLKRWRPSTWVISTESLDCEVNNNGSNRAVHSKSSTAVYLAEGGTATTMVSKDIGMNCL

MAP2K7 = target: T4, MAP2K7 (Homo sapiens, UniProt O14733)
T4 sequence (O14733 1-419): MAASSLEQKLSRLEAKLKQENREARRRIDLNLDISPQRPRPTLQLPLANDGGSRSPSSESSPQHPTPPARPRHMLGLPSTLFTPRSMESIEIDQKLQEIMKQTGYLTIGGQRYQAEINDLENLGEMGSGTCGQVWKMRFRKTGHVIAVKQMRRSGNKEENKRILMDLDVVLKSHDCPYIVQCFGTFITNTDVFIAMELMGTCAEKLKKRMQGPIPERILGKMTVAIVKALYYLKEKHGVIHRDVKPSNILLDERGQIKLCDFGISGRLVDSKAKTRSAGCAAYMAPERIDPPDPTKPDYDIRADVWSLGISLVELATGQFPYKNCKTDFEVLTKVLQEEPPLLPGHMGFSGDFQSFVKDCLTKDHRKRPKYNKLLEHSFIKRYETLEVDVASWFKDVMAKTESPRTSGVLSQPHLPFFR

AAK1 = AAK1 (Homo sapiens, UniProt Q2M2I8)
Chain of AAK1 (Q2M2I8 whole entry): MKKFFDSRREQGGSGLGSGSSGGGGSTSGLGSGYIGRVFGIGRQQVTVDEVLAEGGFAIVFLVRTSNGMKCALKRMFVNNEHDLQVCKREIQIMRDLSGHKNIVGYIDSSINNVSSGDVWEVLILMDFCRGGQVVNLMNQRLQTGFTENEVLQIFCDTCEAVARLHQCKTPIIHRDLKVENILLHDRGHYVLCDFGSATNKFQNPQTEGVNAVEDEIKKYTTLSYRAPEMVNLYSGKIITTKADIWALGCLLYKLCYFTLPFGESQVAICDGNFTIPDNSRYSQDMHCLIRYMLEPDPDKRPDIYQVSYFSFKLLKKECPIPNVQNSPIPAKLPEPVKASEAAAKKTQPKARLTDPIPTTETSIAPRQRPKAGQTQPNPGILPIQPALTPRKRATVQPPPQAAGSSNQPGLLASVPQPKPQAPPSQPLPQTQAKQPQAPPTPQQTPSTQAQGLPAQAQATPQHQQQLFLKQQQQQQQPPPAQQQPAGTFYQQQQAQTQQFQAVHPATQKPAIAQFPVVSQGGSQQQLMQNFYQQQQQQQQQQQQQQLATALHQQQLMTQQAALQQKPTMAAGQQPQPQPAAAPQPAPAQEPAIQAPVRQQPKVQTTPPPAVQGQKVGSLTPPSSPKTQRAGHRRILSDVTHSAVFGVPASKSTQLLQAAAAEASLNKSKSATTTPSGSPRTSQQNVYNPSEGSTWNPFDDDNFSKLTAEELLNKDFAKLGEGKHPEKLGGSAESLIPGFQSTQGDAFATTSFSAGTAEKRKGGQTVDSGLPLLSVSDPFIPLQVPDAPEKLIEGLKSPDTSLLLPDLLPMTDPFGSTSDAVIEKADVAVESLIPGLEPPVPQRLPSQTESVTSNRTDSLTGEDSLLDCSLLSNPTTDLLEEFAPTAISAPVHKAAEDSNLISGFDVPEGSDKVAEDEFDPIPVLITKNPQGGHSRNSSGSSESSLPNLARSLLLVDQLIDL

Chain of MAPKAPK2 (P49137 whole entry): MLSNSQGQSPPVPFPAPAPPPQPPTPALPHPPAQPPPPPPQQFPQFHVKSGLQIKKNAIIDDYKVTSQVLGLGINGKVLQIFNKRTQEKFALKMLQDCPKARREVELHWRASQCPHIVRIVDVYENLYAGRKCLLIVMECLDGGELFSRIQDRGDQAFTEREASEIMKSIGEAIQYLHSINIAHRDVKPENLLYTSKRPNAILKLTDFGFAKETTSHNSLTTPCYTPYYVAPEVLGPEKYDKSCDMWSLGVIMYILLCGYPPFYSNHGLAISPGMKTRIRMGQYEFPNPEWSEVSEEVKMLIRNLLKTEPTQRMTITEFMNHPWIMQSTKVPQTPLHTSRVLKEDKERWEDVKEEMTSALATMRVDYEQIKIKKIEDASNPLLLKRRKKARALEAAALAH

- ΔTm at 10 µM (MAPKAPK2; read-out: dTm 6): -0.7 °C
- ΔTm at 10 µM (BMX; read-out: dTm 6): 3.8 °C
- ΔTm at 10 µM (BMPR2; read-out: dTm 6): -0.3 °C
- ΔTm at 10 µM (MAP2K7; read-out: dTm 6): 0.9 °C
- ΔTm at 10 µM (AAK1; read-out: dTm 6): 0.7 °C
Structure (SMILES): CNc1ncc2cc(-c3cc(Br)ccc3Cl)c(=O)n(CCCCN)c2n1 [compound 6, 8-(4-Aminobutyl)-6-(5-bromo-2-chlorophenyl)-2-(methylamino)pyrido[2,3-d]pyrimidin-7(8H)-one]
- ΔTm at 10 µM (Erk7; read-out: dTm 6): 0.3 °C

- ΔTm at 10 µM (MAPKAPK2; read-out: dTm 7): 0 °C
- ΔTm at 10 µM (BMX; read-out: dTm 7): 3.2 °C
- ΔTm at 10 µM (BMPR2; read-out: dTm 7): 0 °C
- ΔTm at 10 µM (MAP2K7; read-out: dTm 7): 0.1 °C
- ΔTm at 10 µM (AAK1; read-out: dTm 7): 0.5 °C
Structure (SMILES): CNc1ncc2cc(-c3cc(Br)ccc3Cl)c(=O)n(C[C@H]3OC[C@H](N)CO3)c2n1 [compound 7, 8-(((2r,5r)-5-Amino-1,3-dioxan-2-yl)methyl)-6-(5-bromo-2-chlorophenyl)-2-(methylamino)pyrido[2,3-d]pyrimidin-7(8H)-one]
- ΔTm at 10 µM (Erk7; read-out: dTm 7): 0.1 °C

- ΔTm at 10 µM (MAPKAPK2; read-out: dTm MR22 (5)): -0.1 °C
- ΔTm at 10 µM (BMX; read-out: dTm MR22 (5)): 1.9 °C
- ΔTm at 10 µM (BMPR2; read-out: dTm MR22 (5)): 0.3 °C
- ΔTm at 10 µM (MAP2K7; read-out: dTm MR22 (5)): -0.9 °C
- ΔTm at 10 µM (AAK1; read-out: dTm MR22 (5)): 0.4 °C
Structure (SMILES): CNc1ncc2cc(-c3cc(F)ccc3F)c(=O)n(CCCCN)c2n1 [compound 5, 8-(4-Aminobutyl)-6-(2,5-difluorophenyl)-2-(methylamino)pyrido[2,3-d]pyrimidin-7(8H)-one]
- ΔTm at 10 µM (Erk7; read-out: dTm MR22 (5)): -1.5 °C

The remaining lines, values behind:

Structure (SMILES): CNc1ncc2cc(-c3ccc(-c4cccc(C)n4)cc3Cl)c(=O)n(CC3OCC(N)CO3)c2n1 (centres unmarked) [compound 2, G-5555]
- dTm G-5555 (2) (MAPKAPK2; 10 µM, binder): -0.3 °C
- dTm G-5555 (2) (Erk7; 10 µM, binder): 0.3 °C
- dTm G-5555 (2) (BMX; 10 µM, binder): 1.3 °C
- dTm G-5555 (2) (BMPR2; 10 µM, binder): -0.4 °C
- dTm G-5555 (2) (AAK1; 10 µM, binder): 0.6 °C

Structure (SMILES): CNc1ncc2cc(-c3ccccc3Cl)c(=O)n(CCCCN)c2n1 [compound 4, 8-(4-Aminobutyl)-6-(2-chlorophenyl)-2-(methylamino)pyrido[2,3-d]pyrimidin-7(8H)-one]
- ΔTm at 10 µM (MAPKAPK2; read-out: dTm MR21 (4)): 0.1 °C
- ΔTm at 10 µM (Erk7; read-out: dTm MR21 (4)): 0.8 °C
- ΔTm at 10 µM (BMX; read-out: dTm MR21 (4)): 3.3 °C
- ΔTm at 10 µM (BMPR2; read-out: dTm MR21 (4)): 1.6 °C
- ΔTm at 10 µM (MAP2K7; read-out: dTm MR21 (4)): 1.1 °C
- ΔTm at 10 µM (AAK1; read-out: dTm MR21 (4)): 1.6 °C
